# What was measured:
# Format in all cases: in vivo
# [1] = test system: horseweed (Erigeron canadensis); assay: Test A postemergence, horseweed; conditions: Postemergence, 125 g ai/ha; 0 to 100 scale, 10 days
# Excerpt: (§1) Seeds of plant species selected from barnyardgrass (Echinochloa crus-galli), blackgrass (Alopecurus myosuroides), corn (Zea mays), foxtail, giant (giant foxtail, Setaria faberi), foxtail, green (green foxtail, Setaria viridis), goosegrass (Eleusine indica), kochia (Bassia scoparia), oat, wild (wild oat, Avena fatua), palmer amaranth (pigweed, palmer, Amaranthus palmeri), redroot pigweed (Amaranthus retroflexus), ragweed (common ragweed, Ambrosia artemisiifolia), ryegrass, Italian (Italian ryegrass, Lolium multiflorum), and soybean (Glycine max) were planted into a blend of loam soil and sand and treated preemergence with a directed soil spray using test chemicals formulated in a non-phytotoxic solvent mixture which included a surfactant.
# (§2) At the same time, plants selected from these crop and weed species and also wheat (Triticum aestivum), galium (catchweed bedstraw, Galium aparine) and horseweed (Erigeron canadensis) were planted in pots containing the same blend of loam soil and sand and treated with postemergence applications of test chemicals formulated in the same manner. Plants ranged in height from 2 to 10 cm and were in the one- to two-leaf stage for the postemergence treatment. Treated plants and untreated controls were maintained in a greenhouse for 10 days, after which time all treated plants were compared to untreated controls and visually evaluated for injury. Plant response ratings, summarized in Table A, are based on a 0 to 100 scale where 0 is no effect and 100 is complete control. A dash (-) response means no test result.
# soybean (Glycine max) [2] = assay: Test A postemergence, soybean; conditions: 10 days
# Excerpt: as §1, §2
# [3] = test system: wheat (Triticum aestivum); assay: Test A preemergence, wheat; conditions: 125 g ai/ha, 0 to 100 scale, 10 days
# [4] = test system: blackgrass (Alopecurus myosuroides); assay: Test A preemergence, blackgrass; conditions: 0 to 100 scale, 10 days
# Excerpt: as §1, §2
# [5] = test system: foxtail, giant (giant foxtail, Setaria faberi); assay: Test A preemergence, foxtail, giant; conditions: 0 to 100 scale, 10 days
# Outline: (§3)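 Both application timings shared one formulation: test chemical in non-phytotoxic solvent with surfactant. Preemergence used a directed soil spray at sowing, postemergence a spray on 2–10 cm seedlings. Untreated plants served as reference for 0–100 visual ratings after 10 days.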
# [6] = test system: oat, wild (wild oat, Avena fatua); assay: Test A preemergence, oat, wild; conditions: 0 to 100 scale, 10 days
# Excerpt: as §1, §2
# [7] = test system: barnyardgrass (Echinochloa crus-galli); assay: Test B flooded paddy test, barnyardgrass; conditions: 250 g ai/ha, Flood; visually evaluated after 10 to 14 days
# Outline: (§4)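 2-leaf plants; pots flooded to 3 cm; compound applied to paddy water; depth kept constant; greenhouse 10–14 d; visual rating vs untreated, 0 = no effect, 100 = complete control.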
# [8] = test system: galium (catchweed bedstraw, Galium aparine); assay: Test A postemergence, galium; conditions: 10 days
# Outline: as §3
# [9] = test system: foxtail, giant (giant foxtail, Setaria faberi); assay: Test A postemergence, foxtail, giant; conditions: 10 days
# Outline: as §3
# kochia (Bassia scoparia) [10] = assay: Test A preemergence, kochia; conditions: 0 to 100 scale, 10 days
# Outline: as §3
# kochia (Bassia scoparia) [11] = assay: Test A postemergence, kochia; conditions: 10 days
# Outline: as §3
# [12] = test system: ryegrass, Italian (Italian ryegrass, Lolium multiflorum); assay: Test A postemergence, ryegrass, Italian; conditions: 10 days
# Outline: as §3
# [13] = test system: oat, wild (wild oat, Avena fatua); assay: Test A postemergence, oat, wild; conditions: 10 days
# Excerpt: as §1, §2
# [14] = test system: goosegrass (Eleusine indica); assay: Test A preemergence, goosegrass; conditions: 0 to 100 scale, 10 days
# Excerpt: as §1, §2
# [15] = test system: ragweed (common ragweed, Ambrosia artemisiifolia); assay: Test A postemergence, ragweed; conditions: 10 days
# Outline: as §3
# [16] = test system: palmer amaranth (pigweed, palmer, Amaranthus palmeri); assay: Test A postemergence, palmer amaranth; conditions: 10 days
# Excerpt: as §1, §2
# [17] = test system: wheat (Triticum aestivum); assay: Test A postemergence, wheat; conditions: 10 days
# Outline: as §3
# [18] = test system: ducksalad (Heteranthera limosa); assay: Test B flooded paddy test, ducksalad; conditions: 250 g ai/ha, Flood; visually evaluated after 10 to 14 days
# Outline: as §4
# corn (Zea mays) [19] = assay: Test A postemergence, corn; conditions: 10 days
# Outline: as §3
# [20] = test system: ragweed (common ragweed, Ambrosia artemisiifolia); assay: Test A preemergence, ragweed; conditions: 0 to 100 scale, 10 days
# Outline: as §3
# corn (Zea mays) [21] = assay: Test A preemergence, corn; conditions: 0 to 100 scale, 10 days
# Excerpt: as §1, §2
# [22] = test system: palmer amaranth (pigweed, palmer, Amaranthus palmeri); assay: Test A preemergence, palmer amaranth; conditions: 0 to 100 scale, 10 days
# Excerpt: as §1, §2
# [23] = test system: goosegrass (Eleusine indica); assay: Test A postemergence, goosegrass; conditions: 10 days
# Excerpt: as §1, §2
# [24] = test system: ryegrass, Italian (Italian ryegrass, Lolium multiflorum); assay: Test A preemergence, ryegrass, Italian; conditions: 0 to 100 scale, 10 days
# Outline: as §3
# soybean (Glycine max) [25] = assay: Test A preemergence, soybean; conditions: 0 to 100 scale, 10 days
# Excerpt: as §1, §2
# [26] = test system: blackgrass (Alopecurus myosuroides); assay: Test A postemergence, blackgrass; conditions: 10 days
# Outline: as §3
# [27] = test system: sedge, umbrella (small-flower umbrella sedge, Cyperus difformis); assay: Test B flooded paddy test, sedge, umbrella; conditions: 250 g ai/ha, Flood; visually evaluated after 10 to 14 days
# Outline: as §4
# rice (Oryza sativa) = assay: Test B flooded paddy test, rice; conditions: 250 g ai/ha, Flood; visually evaluated after 10 to 14 days
# Outline: as §4
# [28] = 31 g ai/ha, postemergence, 0 to 100 scale (0 no effect, 100 complete control)
# [29] = Postemergence, 125 g ai/ha, 0 to 100 scale
smiles,measurement,setting,value
Cc1ccc2cc3ccc(C)cc3c(-c3c(OCOC(=O)N(C)C)c(Cl)nn(C)c3=O)c2c1 [Compound 18],"Plant response rating, Horseweed",[1],20
same,"Plant response rating, Soybean",soybean (Glycine max) [2]; [28],0
same,"Plant response rating, Soybean",soybean (Glycine max) [2]; [29],20
same,"Plant response rating, Wheat",[3],0
same,"Plant response rating, Blackgrass",[4]; 31 g ai/ha,0
same,"Plant response rating, Blackgrass",[4]; 125 g ai/ha,0
same,"Plant response rating, Foxtail, Giant",[5]; 31 g ai/ha,0
same,"Plant response rating, Foxtail, Giant",[5]; 125 g ai/ha,0
same,"Plant response rating, Oat, Wild",[6]; 31 g ai/ha,0
same,"Plant response rating, Oat, Wild",[6]; 125 g ai/ha,0
same,"Plant response rating, Barnyardgrass (0 to 100 scale where 0 is no effect and 100 is complete control)",[7],0
same,"Plant response rating, Galium",[8]; [28],0
same,"Plant response rating, Galium",[8]; [29],30
same,"Plant response rating, Foxtail, Giant",[9]; [28],0
same,"Plant response rating, Foxtail, Giant",[9]; [29],0
same,"Plant response rating, Kochia",kochia (Bassia scoparia) [10]; 31 g ai/ha,0
same,"Plant response rating, Kochia",kochia (Bassia scoparia) [10]; 125 g ai/ha,0
same,"Plant response rating, Kochia",kochia (Bassia scoparia) [11]; [28],40
same,"Plant response rating, Kochia",kochia (Bassia scoparia) [11]; [29],70
same,"Plant response rating, Ryegrass, Italian",[12]; [28],0
same,"Plant response rating, Ryegrass, Italian",[12]; [29],0
same,"Plant response rating, Oat, Wild",[13]; [28],0
same,"Plant response rating, Oat, Wild",[13]; [29],0
same,"Plant response rating, Goosegrass",[14]; 31 g ai/ha,0
same,"Plant response rating, Goosegrass",[14]; 125 g ai/ha,0
same,"Plant response rating, Ragweed",[15]; [28],30
same,"Plant response rating, Ragweed",[15]; [29],100
same,"Plant response rating, Pigweed, Palmer",[16]; [28],30
same,"Plant response rating, Pigweed, Palmer",[16]; [29],50
same,"Plant response rating, Wheat",[17]; [28],0
same,"Plant response rating, Wheat",[17]; [29],0
same,"Plant response rating, Ducksalad (0 to 100 scale where 0 is no effect and 100 is complete control)",[18],0
same,"Plant response rating, Corn",corn (Zea mays) [19]; [28],0
same,"Plant response rating, Corn",corn (Zea mays) [19]; [29],0
same,"Plant response rating, Ragweed",[20]; 31 g ai/ha,0
same,"Plant response rating, Ragweed",[20]; 125 g ai/ha,0
same,"Plant response rating, Corn",corn (Zea mays) [21]; 31 g ai/ha,0
same,"Plant response rating, Corn",corn (Zea mays) [21]; 125 g ai/ha,0
same,"Plant response rating, Pigweed, Palmer",[22]; 31 g ai/ha,0
same,"Plant response rating, Pigweed, Palmer",[22]; 125 g ai/ha,40
same,"Plant response rating, Goosegrass",[23]; [28],0
same,"Plant response rating, Goosegrass",[23]; [29],0
same,"Plant response rating, Ryegrass, Italian",[24]; 31 g ai/ha,0
same,"Plant response rating, Ryegrass, Italian",[24]; 125 g ai/ha,0
same,"Plant response rating, Soybean",soybean (Glycine max) [25]; 31 g ai/ha,0
same,"Plant response rating, Soybean",soybean (Glycine max) [25]; 125 g ai/ha,0
same,"Plant response rating, Blackgrass",[26]; [28],0
same,"Plant response rating, Blackgrass",[26]; [29],0
same,"Plant response rating, Sedge, Umbrella (0 to 100 scale where 0 is no effect and 100 is complete control)",[27],15
same,"Plant response rating, Rice (0 to 100 scale where 0 is no effect and 100 is complete control)",rice (Oryza sativa),0

# Source: patent US12692238B2, “Substituted pyridazinone herbicides” (FMC CORPORATION, priority 2020, dated 2026)
